Measured values published in patent publication US10203331B2, “Single cell drug response measurements via live cell interferometry” (The Regents of the University of California, priority 2011, dated 2019).
Entries after “also recorded” stand apart in the source; their conditions may differ.

Key:
Format in all cases: cell-based, human
[1] = system: XBP1 mRNA splicing (XBP1-s); assay: RT-PCR for XBP1 spliced and unspliced isoforms in treated H929 cells; conditions: treated H929 population, over five hours
Description: (§1) H929 cells were seeded in 6-well culture plates at a density of 1×10^6 cells/well. Before plating cells in the LCI's observation chamber, either 1 μL of Tunicamycin (T7765; Sigma-Aldrich) in DMSO, or DMSO alone were added to the media at a concentration of 10 mg/ml, DMSO/media (1:1000 dilution). Mass measurements commenced one hour after the cells were plated in the observation chamber in order to allow the experimental system to stabilize, i.e.; culture acclimation, temperature stabilization, etc. For cell cycle analysis, cells from each time point were collected and incubated with a hypotonic DNA-staining buffer containing propidium iodide and later analyzed by flow cytometry. RNA for each time point was extracted using the Trizol reagent (Invitrogen).
(§2) CDNA was synthesized from 3 μg of total RNA with oligo(dT) primers using the Superscript III first strand cDNA synthesis kit (Invitrogen). RT-PCR for XBP1 spliced and unspliced isoforms were performed using Platinum Taq (Invitrogen) at an annealing temperature of 58° C. for 25 cycles. Quantitative RT-PCR for CHOP (DDIT3) mRNA was performed using the SYBR green real time PCR kit (Diagenode) and an Applied Biosystems (Foster City, Calif., USA) 7700 sequence detector as described (33). Samples were analyzed for 36b4 expression as a normalization control. Primer sequences are available on request.

[2] = system: CHOP (DDIT3) mRNA; assay: Quantitative RT-PCR for CHOP (DDIT3) mRNA in treated H929 cells; conditions: treated H929 population, over five hours
Description: as §1, §2

[3] = system: H929 multiple myeloma cells; assay: LCI longitudinal single-cell mass accumulation profiling; set-up: mass accumulation rate (growth) of treated cells versus DMSO-treated controls: dose or concentration left out as unconfirmed; conditions: for mass accumulation rate (growth) of treated cells versus DMSO-treated controls: Tunicamycin, data over five hours
Description: The live cell interferometer has been described in detail previously (1). Briefly, the system is an optical microscope, based on a modified Veeco NT9300 optical profiler, with a 20×0.28NA Michelson interference objective that allows for the observation of not only lateral features with typical optical resolution (1.16 μm for the 20× objective) but also height dimensions of reflective objects below the scale of one nanometer. The Michelson interferometer is composed of a beam splitter, reference mirror and compensating fluid cell to adjust for optical path differences induced by fluid surrounding the specimen. The phase shifting interferometry (PSI) (14) method was used to capture phase images of the cell bodies in situ. During measurement, a piezoelectric translator decreases the light path a small amount causing a phase shift between the test and reference beams. The system records the irradiance of the resulting interference pattern at many different phase shifts and then converts the irradiance to phase wavefront data by integrating the irradiance data using a PSI algorithm. As currently implemented, the autofocus and PSI measurement cycle takes 12 seconds. The PSI measurement itself takes 1-2 seconds, and is limited by the camera frame rate (60 fps). In this experiment, one set of 25 images, containing 400-1,000 cells, was captured every 7 minutes. Each set of 25 images contained hundreds of cells, with data from the first five images presented here, and therefore each run includes ˜80 cells. All cells within each of the selected images were measured.
The software native to the Veeco NT9300 allows automated optical thickness measurements of cells selected manually from the phase image. The optical thickness is converted to mass as described in the text, using the conversion constant, α=1.8×10^−3 m^3 kg^−1, consistent with Ross. (9) The boundary of each cell was automatically selected by an algorithm that partitions objects from the background using a threshold determined from the histogram of pixel heights. (15) Conversion of the raw phase image into optical thickness uses a series of well established ‘phase unwrapping’ routines. […] This error is easily detected as a non-physical discontinuity in optical thickness, and corrected by adding back one wavelength of optical thickness to the affected pixels. […]
H929 human multiple myeloma cells were maintained at 37° C. in 5% CO2 in RPMI 1640 growth media supplemented with 10% defined fetal bovine serum (HyClone) and antibiotics. […] Cell responses to external stimuli were measured for as long as seven hours in this configuration, and observed unperturbed cultures for up to twelve hours, although the upper limit of experiment duration has not been determined. […]

[4] = system: H929 cells; assay: Cell cycle analysis, propidium iodide flow cytometry
Description: as §1

Tunicamycin
XBP1 alternative splicing (spliced form XBP1-s) [1]: alternative splicing | XBP1 alternative splicing (spliced form XBP1-s) ([1]; listed as TM): up-regulation | CHOP transcription factor expression [2]: up-regulation | time at which suppression of growth of the treated population appears ([3]; H929, treated vs untreated): within two hours | mass accumulation rate (growth) of treated cells versus DMSO-treated controls [3]: grow more slowly than do the controls; also recorded: much lower | mass accumulation rate (growth) of treated cells versus DMSO-treated controls ([3]; listed as TM): slowing mass accumulation | cell shrinkage or apoptosis ([3]; with induction of XBP1 mRNA splicing): not cell shrinkage or apoptosis | cells in G1/G0 ([4]; by the end of five hours of treatment): 50% | G2/M phase population ([4]; shift pronounced after three hours of exposure): rapid reduction
